The values that follow are results of earlier work, collected in paper PMC9321963 (Birth Defects Research, 2022).

One series has as its system pregnant rats. The conditions noted are these: ref Mey, Babiuk, Clugston, Zhang, & Greer, [2003]; cited from earlier work.
For the next series, the system named is rats. The conditions noted are these: ref Food and Drug Administration, Duvelisib Label, [2018]; cited from earlier work.
The next series has as its system rabbits. The settings on record: ref Food and Drug Administration, Duvelisib Label, [2018]; cited from earlier work.

For `O=C(O)c1ccc(-c2ccccc2)cc1` [4‐biphenyl carboxylic acid], the “anomalies in offspring after administration to pregnant rats” value (shortened to “anomalies in offspring”) in the series with pregnant rats is on record as “congenital anomalies in the offspring, including CDH defects”. Take `C[C@H](Nc1ncnc2[nH]cnc12)c1cc2cccc(Cl)c2c(=O)n1-c1ccccc1` [Duvelisib]: the developmental toxicity result in the series on rats is “developmental toxicant causing fetal losses and malformations”; in the series on rabbits, “developmental toxicant causing fetal losses and malformations”. For the compound `O=C(NCCCCCCCCNC(=O)C(Cl)Cl)C(Cl)Cl` [bisdiamine, N,N‐octamethylenebis (dichloroacetamide)], the “anomalies in offspring” value in the series with pregnant rats is given as “congenital anomalies in the offspring, including CDH defects”. `O=[N+]([O-])c1ccc(Oc2ccc(Cl)cc2Cl)cc1` [nitrofen, 2,4‐dichlorophenyl‐p‐nitrophenyl ether]: the “anomalies in offspring” value in the series on pregnant rats was “congenital anomalies in the offspring, including CDH defects”.
